Measurements reported in patent US10006030B2, “RNA interference compositions targeting heat shock protein 90 and methods of use thereof” (SILENSEED LTD., priority 2014, dated 2018).
d = 2'-deoxy (DNA); r = 2'-OH (RNA)

Key:
LNCaP cells = assay: methylene blue (MB) cell viability assay after siRNA transfection; assay type: cell-based; details: Lipofectamine 2000 transfection, 72 hours incubation, FIG. 1
Method: Prostate cancer cell line LNCaP (ATCC # CRL-1740) was grown in Roswell Park Memorial Institute medium (RPMI) supplemented with 10% fetal bovine serum (FBS) and 100 units/ml penicillin/streptomycin, according to the ATCC protocol. Cells were seeded into 96-well culture plates and incubated overnight before transfection with siRNAs targeting HSP90 sequences.
Cells were transfected using Lipofectamine® 2000 transfection reagent (Life Technologies) based on manufacturer's protocol, with siRNA targeting HSP90: HSP1-1 (sense strand SEQ ID NO: 4, anti-sense strand SEQ ID NO: 8), HSP1-2 (sense strand SEQ ID NO: 5, anti-sense strand SEQ ID NO: 9), and HSP1-3 (sense strand SEQ ID NO: 6, anti-sense strand SEQ ID NO: 10). Cells were also treated with HSP90 inhibitor NVP-AUY922 (or AUY922), a resorcinylicisoxazole amide was used at 5 nM and 10 nM (with similar effect), or left untreated. After 72 hours incubation, cellular viability was determined by standard methylene blue (MB) assay, and quantitated as percentage of viable cells in relation to the untreated sample (FIG. 1).

Androgen receptor = assay: AR-dependent luciferase reporter assay in transfected LNCaP cells; assay type: cell-based; details: co-transfection, 24 hours post-transfection, vs mock, p<0.05, FIG. 2
Method: HPS90 is known to be a chaperone of AR (androgen receptor), and is necessary for correct AR post-translational processing. To further test RNAi targeting of HSP90, an AR-dependent luciferase reporter construct was used (FIG. 2). LNCaP cells were cultured as above, and were seeded onto a 48-well culture plate. After an overnight incubation, plated cells were co-transfected using Lipofectamine® 2000 transfection reagent (Life Technologies) based on manufacturer's protocol for DNA-RNA transfections with an AR-luciferase reporter plasmid (Qiagen, CCS-1019L), and siRNA targeting HSP90 (HSP1-1 (sense strand SEQ ID NO: 4, anti-sense strand SEQ ID NO: 8); AR (siAR-1), or a non-target scrambled siRNA (si-scr). Cells transfected only with the AR-luciferase reported plasmid served as the negative control (mock). 24 hours post-transfection, cells were lysed and luciferase activity determined with the Promega luciferase detection kit.

## HSP1-3: siRNA targeting HSP90, sense strand SEQ ID NO: 6, anti-sense strand SEQ ID NO: 10 (sense AAGUCUGGGACCAAAGCGUTT; antisense ACGCUUUGGUCCCAGACUUTT; sugars from the 5' end r19 d2, backbone not given here)
LNCaP cells
  cellular viability (percentage of viable cells in relation to the untreated sample): statistically significant decrease

## HSP1-1: siRNA targeting HSP90, sense strand SEQ ID NO: 4, anti-sense strand SEQ ID NO: 8 (sense 5'-AAG ACC AAC CGA UGG AGGAdTdT-3'; antisense 5'-UCC UCC AUC GGU UGG UCUUdTdT-3; as printed in the source, key not given here)
LNCaP cells
  cellular viability (percentage of viable cells in relation to the untreated sample): statistically significant decrease
Androgen receptor
  luciferase activity of AR-luciferase reporter plasmid: significantly decreased

## HSP1-2: siRNA targeting HSP90, sense strand SEQ ID NO: 5, anti-sense strand SEQ ID NO: 9 (sense AAGAGCUGCAUAUUAACCUTT; antisense AGGUUAAUAUGCAGCUCUUTT; sugars from the 5' end r19 d2, backbone not given here)
LNCaP cells
  cellular viability (percentage of viable cells in relation to the untreated sample): statistically significant decrease
